Data taken from patent publication US9682991B2, “Tricyclic compounds for use as kinase inhibitors” (FUNDACIÓN CENTRO NACIONAL DE INVESTIGACIONES ONCOLOGICAS …, priority 2009, dated 2017).
Like-named read-outs stand apart in the source and are kept apart here.

Assays:
PIM-2 = PIM-2 (Homo sapiens (Human), UniProt Q9P1W9); assay: PIM-2 biochemical assay (ADP Hunter); conditions: semi-quantitative; read-out: PIM2 IC50
Source text: The biochemical assay to measure PIM-2 activity relies on the ADP Hunter assay kit (DiscoveRx Corp., Cat. #90-0077), that determines the amount of ADP as direct product of the kinase enzyme activity.

PIM-3 = PIM-3 (Homo sapiens (Human), UniProt Q86V86); assay: PIM-3 biochemical assay (ADP Hunter); conditions: semi-quantitative; read-out: PIM3 IC50
PIM-1 = PIM-1 (Homo sapiens (Human), UniProt P11309); assay: PIM-1 biochemical assay (ADP Hunter)
Sequence of PIM-1 (P11309 whole entry): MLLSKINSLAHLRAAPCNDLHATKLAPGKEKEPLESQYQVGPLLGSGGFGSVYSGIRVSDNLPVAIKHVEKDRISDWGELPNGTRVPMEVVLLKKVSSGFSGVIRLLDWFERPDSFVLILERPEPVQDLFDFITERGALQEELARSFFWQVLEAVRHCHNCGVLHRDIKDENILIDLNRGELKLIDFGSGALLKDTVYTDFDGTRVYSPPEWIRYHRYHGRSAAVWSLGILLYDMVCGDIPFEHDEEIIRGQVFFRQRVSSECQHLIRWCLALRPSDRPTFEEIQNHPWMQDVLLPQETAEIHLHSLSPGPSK

[1] = read-out: PIM1 IC50, semi-quantitative

Sequence of PIM-2 (Q9P1W9 whole entry): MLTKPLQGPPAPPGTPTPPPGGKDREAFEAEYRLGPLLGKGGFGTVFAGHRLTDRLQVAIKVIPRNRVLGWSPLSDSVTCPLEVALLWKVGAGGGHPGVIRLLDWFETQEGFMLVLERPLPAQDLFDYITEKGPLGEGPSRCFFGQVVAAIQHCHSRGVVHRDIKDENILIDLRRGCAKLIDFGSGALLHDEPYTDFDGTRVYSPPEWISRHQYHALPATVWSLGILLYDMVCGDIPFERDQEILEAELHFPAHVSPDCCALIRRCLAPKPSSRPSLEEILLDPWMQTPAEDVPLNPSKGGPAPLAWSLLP

Row | SMILES | IC50 (PIM-2) [nM] | IC50 (PIM-3) [nM] | IC50 (PIM-1; [1]) [nM] | IC50 (PIM-1) [nM] | IC50 (PIM-1; read-out: PIM1 IC50) [nM]
1 | CN(CCN1CCOCC1)c1nn2c(-c3cccc(OC(F)(F)F)c3)nnc2c2c1N(C)CCO2 [Example 98, Methyl-[6-methyl-3-(3-trifluoromethoxy-phenyl)-7,8-dihydro-6H-9-oxa-1,2,3a,4,6-pentaaza-cyclopenta[a]naphthalen-5-yl]-(2-morpholin-4-yl-ethyl)-amine] | 100 to 1000 | 100 to 1000 | < 100 | – | –
2 | CN1CCOc2c1c(N1CCC(CN)CC1)nn1c(-c3cccc(OC(F)(F)F)c3)nnc21 [Example 55, C-{1-[6-Methyl-3-(3-trifluoromethoxy-phenyl)-7,8-dihydro-6H-9-oxa-1,2,3a,4,6-pentaaza-cyclopenta[a]naphthalen-5-yl]-piperidin-4-yl}-methylamine] | – | < 100 | < 100 | – | –
3 | CC(C)NCC1CCN(c2nn3c(-c4cccc(OC(F)(F)F)c4)nnc3c3c2N(C)CCO3)CC1 [Example 85, Isopropyl-{1-[6-methyl-3-(3-trifluoromethoxy-phenyl)-7,8-dihydro-6H-9-oxa-1,2,3a,4,6-pentaaza-cyclopenta[a]naphthalen-5-yl]-piperidin-4-ylmethyl}-amine] | 100 to 1000 | 100 to 1000 | < 100 | – | –
4 | CN1CCOc2c1c(N(C)C1CCOCC1)nn1c(-c3cccc(OC(F)(F)F)c3)nnc21 [Example 97, Methyl-[6-methyl-3-(3-trifluoromethoxy-phenyl)-7,8-dihydro-6H-9-oxa-1,2,3a,4,6-pentaaza-cyclopenta[a]naphthalen-5-yl]-(tetrahydro-pyran-4-yl)-amine] | 100 to 1000 | < 100 | < 100 | – | –
5 | CN1CCOc2c1c(NC1CCOCC1)nn1c(-c3cccc(OC(F)(F)F)c3)nnc21 [Example 23, [6-Methyl-3-(3-trifluoromethoxy-phenyl)-7,8-dihydro-6H-9-oxa-1,2,3a,4,6-pentaaza-cyclopenta[a]naphthalen-5-yl]-(tetrahydro-pyran-4-yl)-amine] | < 100 | 100 to 1000 | < 100 | – | –
6 | CN1CCC(CNc2nn3c(-c4cccc(C(F)(F)F)c4)nnc3c3c2N(C)CCO3)CC1 [Example 32, (1-Methyl-piperidin-4-ylmethyl)-[6-methyl-3-(3-trifluoromethyl-phenyl)-7,8-dihydro-6H-9-oxa-1,2,3a,4,6-pentaaza-cyclopenta[a]naphthalen-5-yl]-amine] | 100 to 1000 | < 100 | < 100 | – | –
7 | CN1CCOc2c1c(NCCc1cccnc1)nn1c(-c3cccc(OC(F)(F)F)c3)nnc21 [Example 26, [6-Methyl-3-(3-trifluoromethoxy-phenyl)-7,8-dihydro-6H-9-oxa-1,2,3a,4,6-pentaaza-cyclopenta[a]naphthalen-5-yl]-(2-pyridin-3-yl-ethyl)-amine] | 100 to 1000 | 100 to 1000 | – | – | –
8 | COc1ccc(-c2nnc3c4c(c(NCc5ccc(F)cc5)nn23)OCCN4C)cc1 [Example 80, (4-Fluoro-benzyl)-[3-(4-methoxy-phenyl)-9-methyl-8,9-dihydro-7H-6-oxa-1,2,3a,4,9-pentaaza-cyclopenta[a]naphthalen-5-yl]-amine] | > 1000 | – | > 1000 | – | –
9 | CN1CCC(CNc2nn3c(-c4ccc5[nH]ccc5c4)nnc3c3c2N(C)CCO3)CC1 [Example 33, [3-(1H-Indol-5-yl)-6-methyl-7,8-dihydro-6H-9-oxa-1,2,3a,4,6-pentaaza-cyclopenta[a]naphthalen-5-yl]-(1-methyl-piperidin-4-ylmethyl)-amine] | > 1000 | – | – | 100 to 1000 | –
10 | CN1CCOc2c(NCC3CC3)nn3c(-c4cccc(OC(F)(F)F)c4)nnc3c21 [Example 8, Cyclopropylmethyl-[9-methyl-3-(3-trifluoromethoxy-phenyl)-8,9-dihydro-7H-6-oxa-1,2,3a,4,9-pentaaza-cyclopenta[a]naphthalen-5-yl]-amine] | > 1000 | – | – | 100 to 1000 | –
11 | COc1ccc(-c2nnc3c4c(c(NCc5ccc(F)cc5)nn23)N(C)CCN4C)cc1 [Example 15, (4-Fluoro-benzyl)-[3-(4-methoxy-phenyl)-6,9-dimethyl-6,7,8,9-tetrahydro-1,2,3a,4,6,9-hexaaza-cyclopenta[a]naphthalen-5-yl]-amine] | > 1000 | – | – | > 1000 | 4350
12 | CN1CCOc2c(NCCN3CCN(S(C)(=O)=O)CC3)nn3c(-c4cccc(OC(F)(F)F)c4)nnc3c21 [Example 96, [2-(4-Methanesulfonyl-piperazin-1-yl)-ethyl]-[9-methyl-3-(3-trifluoromethoxy-phenyl)-8,9-dihydro-7H-6-oxa-1,2,3a,4,9-pentaaza-cyclopenta[a]naphthalen-5-yl]-amine] | > 1000 | – | – | 100 to 1000 | –
13 | CN1CCC(CNc2nn3c(-c4cccc(OC(F)(F)F)c4)nnc3c3c2OCC(C)(C)N3C)CC1 [Example 72, (1-Methyl-piperidin-4-ylmethyl)-[8,8,9-trimethyl-3-(3-trifluoromethoxy-phenyl)-8,9-dihydro-7H-6-oxa-1,2,3a,4,9-pentaaza-cyclopenta[a]naphthalen-5-yl]-amine] | > 1000 | 100 to 1000 | – | 100 to 1000 | –
14 | COc1ccc(CNc2nn3c(-c4cccc(OC(F)(F)F)c4)nnc3c3c2N(C)CCO3)cc1OC [Example 24, (3,4-Dimethoxy-benzyl)-[6-methyl-3-(3-trifluoromethoxy-phenyl)-7,8-dihydro-6H-9-oxa-1,2,3a,4,6-pentaaza-cyclopenta[a]naphthalen-5-yl]-amine] | > 1000 | – | – | 100 to 1000 | –
15 | CC(=O)N1CCN(CCNc2nn3c(-c4cccc(OC(F)(F)F)c4)nnc3c3c2OCCN3C)CC1 [Example 95, 1-(4-{2-[9-Methyl-3-(3-trifluoromethoxy-phenyl)-8,9-dihydro-7H-6-oxa-1,2,3a,4,9-pentaaza-cyclopenta[a]naphthalen-5-ylamino]-ethyl}-piperazin-1-yl)-ethanone] | > 1000 | – | > 1000 | – | –
16 | CN1CCC(CNc2nn3c(-c4cccc(OC(F)(F)F)c4)nnc3c3c2OCCO3)CC1 [Example 41, (1-Methyl-piperidin-4-ylmethyl)-[3-(3-trifluoromethoxy-phenyl)-7,8-dihydro-6,9-dioxa-1,2,3a,4-tetraaza-cyclopenta[a]naphthalen-5-yl]-amine] | 100 to 1000 | – | < 100 | – | –
17 | COc1ccc(-c2nnc3c4c(c(N5CCC(CNC(C)=O)CC5)nn23)N(C)CCO4)cc1 [Example 92, N-{1-[3-(4-Methoxy-phenyl)-6-methyl-7,8-dihydro-6H-9-oxa-1,2,3a,4,6-pentaaza-cyclopenta[a]naphthalen-5-yl]-piperidin-4-ylmeth I}-acetamide] | > 1000 | – | > 1000 | – | –
18 | CN1CCOc2c1c(N1CCCC3(CCCN3C)CC1)nn1c(-c3cccc(OC(F)(F)F)c3)nnc21 (stereo not shown) [Example 61, 6-Methyl-5-(1-methyl-1,8-diaza-spiro[4.6]undec-8-yl)-3-(3-trifluoromethoxy-phenyl)-7,8-dihydro-6H-9-oxa-1,2,3a,4,6-pentaaza-cyclopenta[a]naphthalene] | 100 to 1000 | – | < 100 | – | –
19 | FC(F)(F)Oc1cccc(-c2nnc3c4c(c(NCC5CC5)nn23)OCCO4)c1 [Example 102, Cyclopropylmethyl-[3-(3-trifluoromethoxy-phenyl)-7,8-dihydro-6,9-dioxa-1,2,3a,4-tetraaza-cyclopenta[a]naphthalen-5-yl]-amine] | < 100 | – | < 100 | – | –
20 | COc1ccc(-c2nnc3c4c(c(NCC5CCN(C(=O)OC(C)(C)C)CC5)nn23)N(C)CCO4)cc1 [Example 51, 4-{[3-(4-Methoxy-phenyl)-6-methyl-7,8-dihydro-6H-9-oxa-1,2,3a,4,6-pentaaza-cyclopenta[a]naphthalen-5-ylamino]-methyl}-piperidine-1-carboxylic acid tert-butyl ester] | > 1000 | – | > 1000 | – | –
21 | CN1CCOc2c(N3CC4(CCNCC4)C3)nn3c(-c4cccc(OC(F)(F)F)c4)nnc3c21 [Example 83, 5-(2,7-Diaza-spiro[3.5]non-2-yl)-9-methyl-3-(3-trifluoromethoxy-phenyl)-8,9-dihydro-7H-6-oxa-1,2,3a,4,9-pentaaza-cyclopenta[a]naphthalene] | > 1000 | – | – | 100 to 1000 | –
22 | COc1ccc(-c2nnc3c4c(c(NCC5CCN(C)CC5)nn23)N(C)CCO4)cc1 [Example 1, [3-(4-Methoxy-phenyl)-6-methyl-7,8-dihydro-6H-9-oxa-1,2,3a,4,6-pentaaza-cyclopenta[a]naphthalen-5-yl]-(1-methyl-piperidin-4-ylmethyl)-amine] | > 1000 | – | – | 100 to 1000 | –
23 | CN1CCOc2c1c(N(C)[C@H]1CC[C@H](O)CC1)nn1c(-c3cccc(OC(F)(F)F)c3)nnc21 [Example 35, 4-{Methyl-[6-methyl-3-(3-trifluoromethoxy-phenyl)-7,8-dihydro-6H-9-oxa-1,2,3a,4,6-pentaaza-cyclopenta[a]naphthalen-5-yl]-amino}-cyclohexanol] | < 100 | – | < 100 | – | –
24 | CN1CCOc2c1c(NCC1CCC(O)CC1)nn1c(-c3cccc(OC(F)(F)F)c3)nnc21 (stereo not shown) [Example 43, 4-{[6-Methyl-3-(3-trifluoromethoxy-phenyl)-7,8-dihydro-6H-9-oxa-1,2,3a,4,6-pentaaza-cyclopenta[a]naphthalen-5-ylamino]-methyl}-cyclohexanol] | – | < 100 | < 100 | – | –
25 | CN1CCOc2c(NCCCO)nn3c(-c4cccc(OC(F)(F)F)c4)nnc3c21 [Example 22, 3-[9-Methyl-3-(3-trifluoromethoxy-phenyl)-8,9-dihydro-7H-6-oxa-1,2,3a,4,9-pentaaza-cyclopenta[a]naphthalen-5-ylamino]-propan-1-ol] | > 1000 | – | – | 100 to 1000 | 678
26 | COc1ccc(-c2nnc3c4c(c(NCCN5CCOCC5)nn23)N(C)CCO4)cc1 [Example 4, [3-(4-Methoxy-phenyl)-6-methyl-7,8-dihydro-6H-9-oxa-1,2,3a,4,6-pentaaza-cyclopenta[a]naphthalen-5-yl]-(2-morpholin-4-yl-ethyl)-amine] | > 1000 | – | – | 100 to 1000 | 811
